Values after ≈ are worked out from the molar mass of the structure shown. Read-outs that look alike come from different tables or passages of the source.
Legend:
[1] = system: Bacillus subtilis (DSM 10); experiment: microbe, parasite or virus in culture; assay type: cell-based
Method: (§1) Serial dilution assays were performed in 96-well microtiter plates to determine the minimum inhibitory concentrations (MICs) against a panel of yeasts, filamentous fungi, and bacteria, as well as the half-maximal inhibitory concentrations (IC50) against human cell lines, following our previously described protocol ([Charria-Girón et al. 2023]).

[2] = system: Staphylococcus aureus (DSM 346); experiment: microbe, parasite or virus in culture; assay type: cell-based
Method: as §1

[3] = system: Candida albicans (DSM 1665); experiment: MIC serial dilution assay; assay type: cell-based; details: serial dilution in 96-well microtiter plates, tested up to 67 µg/mL
Method: as §1

[4] = system: Escherichia coli (DSM 1116); experiment: MIC serial dilution assay; assay type: cell-based; details: serial dilution in 96-well microtiter plates, tested up to 67 µg/mL
Method: as §1

[5] = system: Mucor hiemalis (DSM 2656); experiment: MIC serial dilution assay; assay type: cell-based; details: serial dilution in 96-well microtiter plates, tested up to 67 µg/mL
Method: as §1

[6] = system: Mycobacterium smegmatis (ATCC 700084); experiment: MIC serial dilution assay; assay type: cell-based; details: serial dilution in 96-well microtiter plates, tested up to 67 µg/mL
Method: as §1

[7] = system: Pseudomonas aeruginosa (PA14); experiment: MIC serial dilution assay; assay type: cell-based; details: serial dilution in 96-well microtiter plates, tested up to 67 µg/mL
Method: as §1

Mouse fibroblast (L929) = experiment: Cytotoxicity assay; assay type: cell-based; details: serial dilution in 96-well plates
[8] = system: Human endocervival adenocarcinoma (KB3.1); experiment: cells; assay type: cell-based
Method: as §1

[9] = Solubility in deuterated solvents (for NMR); assay type: physicochemical; details: observation during NMR sample preparation; deuterated solvents / deuterated DMSO
[10] = system: Human breast adenocarcinoma (MCF-7); experiment: Cytotoxicity assay; assay type: cell-based; details: serial dilution in 96-well plates
Method: as §1

[11] = system: Human ovarian cancer (SKOV-3); experiment: Cytotoxicity assay; assay type: cell-based; details: serial dilution in 96-well plates
Method: as §1

[12] = system: Human epidermoid carcinoma (A431); assay type: cell-based
Method: as §1

[13] = system: Human lung carcinoma (A549); assay type: cell-based
Method: as §1

[14] = system: Human prostate carcinoma (PC-3); assay type: cell-based
Method: as §1

[15] = system: beet armyworm (Spodoptera exigua, Lepidoptera); experiment: Virulence of purified compounds against beet armyworm larvae (injection); assay type: in vivo; details: larvae injected with 0.5 µL of DMSO dilutions (40 to 0.625 µg/mL), n = 6 per concentration, 25 °C
Method: To evaluate the virulence of purified compounds against beet armyworm larvae, beauveriolides I (4) and M (5) were selected based on availability, and cytochalasin D served as a positive control. […] Larvae were injected with 0.5 µL of each dilution (n = 6 per concentration), maintained at 25 °C for one week, and monitored daily to assess mortality. Saline ([…]) and DMSO served as negative controls.
For proof of concept, beauveriolides I (4) and M (5) were selected based on availability and tested following the spore-suspension protocol but considering only total mortality, with cytochalasin D, a mycotoxin commonly produced by Metarhizium spp., used as a positive control ([Kobmoo et al. 2024]).

[16] = ref Namatame et al. 2004; cited from earlier work
From the text: (§2) Our study highlights how amino acid substitutions modulate beauveriolides’ bioactivities. […] Thus, the amino acid at this position is crucial for bioactivity. The lack of antimicrobial activity in some beauveriolides, such as those containing HDA, further supports the hypothesis that these molecules may have different functions, such as facilitating insect pathogenicity rather than broad antimicrobial antagonism.

macrophages = details: ref Namatame et al. 2004; cited from earlier work
From the text: as §2

[17] = system: Acinetobacter baumannii (DSM 30008); experiment: MIC serial dilution assay; assay type: cell-based; details: serial dilution in 96-well microtiter plates, tested up to 67 µg/mL
Method: as §1

[18] = system: Chromobacterium violaceum (DSM 30191); experiment: MIC serial dilution assay; assay type: cell-based; details: serial dilution in 96-well microtiter plates, tested up to 67 µg/mL
Method: as §1

[19] = system: Rhodotorula glutinis (DSM 10134); experiment: MIC serial dilution assay; assay type: cell-based; details: serial dilution in 96-well microtiter plates, tested up to 67 µg/mL
Method: as §1

[20] = system: Schizosaccharomyces pombe (DSM 70572); experiment: MIC serial dilution assay; assay type: cell-based; details: serial dilution in 96-well microtiter plates, tested up to 67 µg/mL
Method: as §1

[21] = system: Wickerhamomyces anomalus (DSM 6766); experiment: MIC serial dilution assay; assay type: cell-based; details: serial dilution in 96-well microtiter plates, tested up to 67 µg/mL
Method: as §1

[22] = serial dilution in 96-well microtiter plates, tested up to 67 µg/mL
[23] = KB3.1, serial dilution in 96-well plates, read-out: IC50
[24] = concentration of the value not stated

Row | Compound | MIC [1, 22] | MIC [3] | MIC [4] | MIC [5] | MIC [6] | MIC [7] | IC50 (Mouse fibroblast (L929)) | IC50 [8, 23] | solubility in deuterated solvents [9] | MIC [2, 22] | MIC [17] | MIC [18] | MIC [19] | MIC [20] | MIC [21] | other results
1 | CCCC[C@H](C)[C@@H]1CC(=O)N[C@@H](C)C(=O)N[C@@H](C)C(=O)N[C@H](CC(C)C)C(=O)O1 [Compound 3, Beauveriolide S] | n.i. (No inhibition up to 67 µg/mL) | n.i. (No inhibition up to 67 µg/mL) | n.i. (No inhibition up to 67 µg/mL) | n.i. (No inhibition up to 67 µg/mL) | n.i. (No inhibition up to 67 µg/mL) | n.i. (No inhibition up to 67 µg/mL) | > 36.5 µM | > 36.5 µM | insoluble |  |  |  |  |  |  | MIC ([2]; DSM 346): 66.6 µg/mL (≈ 162 µM)
2 | CCCC[C@H](C)[C@@H]1CC(=O)N[C@@H](Cc2ccccc2)C(=O)N[C@@H](C)C(=O)N[C@H](CC(C)C)C(=O)O1 [Compound 4, beauveriolide I] |  | n.i. (No inhibition up to 67 µg/mL) | n.i. (No inhibition up to 67 µg/mL) | n.i. (No inhibition up to 67 µg/mL) | n.i. (No inhibition up to 67 µg/mL) | n.i. (No inhibition up to 67 µg/mL) |  |  |  |  |  |  |  |  |  | MIC ([1]; DSM 10): 66.6 µg/mL (≈ 137 µM); MIC ([2]; DSM 346): 66.6 µg/mL (≈ 137 µM); IC50 [8]: 13.3 µM; IC50 [10]: > 36.5 µM; IC50 [11]: > 36.5 µM; IC50 [12]: 1.2 µM; IC50 [13]: 0.9 µM; IC50 [14]: 3.5 µM; total mortality (TM) in the last two days ([15]; 7-day period, concentration of the value not stated): 67%; average total mortality (TM) over the first five days [15, 24]: 33%; adverse outcomes in animal studies [16]: without adverse outcomes; antiatherogenic effects in macrophages (macrophages): potent antiatherogenic effects
3 | CCCC[C@H](C)[C@@H]1CC(=O)N[C@@H](C(C)C)C(=O)N[C@@H](C)C(=O)N[C@H](CC(C)C)C(=O)O1 [Compound 5, beauveriolide M] | n.i. (No inhibition up to 67 µg/mL) | n.i. (No inhibition up to 67 µg/mL) | n.i. (No inhibition up to 67 µg/mL) |  | n.i. (No inhibition up to 67 µg/mL) | n.i. (No inhibition up to 67 µg/mL) | > 36.5 µM | > 36.5 µM |  | n.i. (No inhibition up to 67 µg/mL) |  |  |  |  |  | insecticidal activity over 7 days ([15]; total mortality): no insecticidal
4 | CC(=O)c1nc(C(=O)O)cc2c1[nH]c1ccccc12 [Compound 12, 1-acetyl-3-carboxy-β-carboline] |  |  |  |  |  |  |  |  |  |  |  |  |  |  |  | MIC ([1]; Bacillus subtilis, DSM10, serial dilution in 96-well microtiter plates, tested up to 67 µg/mL, read-out: MIC): > 67 µg/mL; MIC ([2]; Staphylococcus aureus, DSM346, serial dilution in 96-well microtiter plates, tested up to 67 µg/mL, read-out: MIC): > 67 µg/mL; MIC ([17]; Acinetobacter baumannii, DSM30008, read-out: MIC): > 67 µg/mL; MIC ([3]; Candida albicans, DSM1665, read-out: MIC): > 67 µg/mL; MIC ([18]; Chromobacterium violaceum, DSM30191, read-out: MIC): > 67 µg/mL; MIC ([4]; Escherichia coli, DSM1116, read-out: MIC): > 67 µg/mL; MIC ([5]; Mucor hiemalis, DSM2656, read-out: MIC): > 67 µg/mL; MIC ([6]; Mycolicibacterium smegmatis, ATCC700084, read-out: MIC): > 67 µg/mL; MIC ([7]; Pseudomonas aeruginosa, PA14, read-out: MIC): > 67 µg/mL; MIC ([19]; Rhodotorula glutinis, DSM10134, read-out: MIC): > 67 µg/mL; MIC ([20]; Schizosaccharomyces pombe, DSM70572, read-out: MIC): > 67 µg/mL; MIC ([21]; Hansenula anomala, DSM6766, read-out: MIC): > 67 µg/mL; IC50 (Mouse fibroblast (L929); Mus musculus): > 36.5 µM; IC50 ([8]; Homo sapiens, KB 3-1, KB3.1, serial dilution in 96-well plates, read-out: IC50): > 36.5 µM
5 | C=C1[C@@H](C)[C@H]2[C@H](Cc3ccccc3)NC(=O)[C@]23[C@H](OC(C)=O)/C=C/[C@@](C)(O)C(=O)[C@@H](C)C/C=C/[C@H]3[C@@H]1O [cytochalasin D, reference compound] |  |  |  |  |  |  |  |  |  |  |  |  |  |  |  | total mortality (TM) by day 2 [15, 24]: 83%
6 | Beauveriolide III [reference compound] |  |  |  |  |  |  |  |  |  |  |  |  |  |  |  | adverse outcomes in animal studies [16]: without adverse outcomes; antiatherogenic effects in macrophages (macrophages): potent antiatherogenic effects
7 | Beauveriolide Q [Compound 1] | n.i. (No inhibition up to 67 µg/mL) | n.i. (No inhibition up to 67 µg/mL) | n.i. (No inhibition up to 67 µg/mL) | n.i. (No inhibition up to 67 µg/mL) | n.i. (No inhibition up to 67 µg/mL) | n.i. (No inhibition up to 67 µg/mL) | > 36.5 µM | > 36.5 µM | poor solubility | n.i. (No inhibition up to 67 µg/mL) | n.i. (No inhibition up to 67 µg/mL) | n.i. (No inhibition up to 67 µg/mL) | n.i. (No inhibition up to 67 µg/mL) | n.i. (No inhibition up to 67 µg/mL) | n.i. (No inhibition up to 67 µg/mL) | 
8 | Beauveriolide R [Compound 2] | n.i. (No inhibition up to 67 µg/mL) | n.i. (No inhibition up to 67 µg/mL) | n.i. (No inhibition up to 67 µg/mL) | n.i. (No inhibition up to 67 µg/mL) | n.i. (No inhibition up to 67 µg/mL) | n.i. (No inhibition up to 67 µg/mL) | > 36.5 µM | > 36.5 µM | soluble | n.i. (No inhibition up to 67 µg/mL) | n.i. (No inhibition up to 67 µg/mL) | n.i. (No inhibition up to 67 µg/mL) | n.i. (No inhibition up to 67 µg/mL) | n.i. (No inhibition up to 67 µg/mL) | n.i. (No inhibition up to 67 µg/mL) | 
9 | cyclo-((S)-Pro-(R)-Ile) [Compound 9] | n.i. (No inhibition up to 67 µg/mL) | n.i. (No inhibition up to 67 µg/mL) | n.i. (No inhibition up to 67 µg/mL) | n.i. (No inhibition up to 67 µg/mL) | n.i. (No inhibition up to 67 µg/mL) | n.i. (No inhibition up to 67 µg/mL) | > 36.5 µM | > 36.5 µM |  | n.i. (No inhibition up to 67 µg/mL) | n.i. (No inhibition up to 67 µg/mL) | n.i. (No inhibition up to 67 µg/mL) | n.i. (No inhibition up to 67 µg/mL) | n.i. (No inhibition up to 67 µg/mL) | n.i. (No inhibition up to 67 µg/mL) | 
10 | cyclo-((S)-Pro-(R)-Leu) [Compound 8] | n.i. (No inhibition up to 67 µg/mL) | n.i. (No inhibition up to 67 µg/mL) | n.i. (No inhibition up to 67 µg/mL) | n.i. (No inhibition up to 67 µg/mL) | n.i. (No inhibition up to 67 µg/mL) | n.i. (No inhibition up to 67 µg/mL) | > 36.5 µM | > 36.5 µM |  | n.i. (No inhibition up to 67 µg/mL) | n.i. (No inhibition up to 67 µg/mL) | n.i. (No inhibition up to 67 µg/mL) | n.i. (No inhibition up to 67 µg/mL) | n.i. (No inhibition up to 67 µg/mL) | n.i. (No inhibition up to 67 µg/mL) | 

Reference: paper PMC12717519, “Chemical clues to infection: A pilot study on the differential secondary metabolite production during the life cycle of selected Cordyceps species” (IMA Fungus, 2025)
